SMILES strings stand for the structures.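 Growth conditions: 96-well plates. Treatment: test compound, 48 hours, 5 concentrations. Analysis: linear interpolation between bracketing concentrations; unreached endpoints set to highest concentration. The concentration for 50% growth inhibition is given as GI50.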 Activity calls are given as the source filed them. Cut-off read from the data, not from the text of the source: active = GI50 up to about 1.1 µM and inactive = higher.

Test systems include BT-549; HCC 2998; HCT-15; HL-60; K562; MDA-MB-435; MOLT-4; NCI-H522; NCI/ADR-RES; OVCAR-4; RPMI-8226; SF-539; SK-MEL-2; SK-MEL-5; SN12C; U-251; UACC-257; UACC-62; UO-31; EKVX.
What all share (experiment): NCI-60 cell line screen, 48 h

As for `O=C(/C=C/c1ccc(O)c(O)c1)OCCc1cccc2ccccc12`, the GI50 in the assay with BT-549 was 7.85 µM (inactive); with HCC 2998, 11.1 µM (inactive); in the assay with HCT-15 it was 1.28 µM; in the assay with HL-60 it was 1.38 µM (inactive); in the assay with K562, 2.77 µM (inactive); with MDA-MB-435, 2.02 µM (inactive). For the same molecule, the GI50 in the assay with MOLT-4 was 1.61 µM (inactive); in the assay with NCI-H522, 0.948 µM (active); in the assay on NCI/ADR-RES, 6.15 µM (inactive); with OVCAR-4, 10.7 µM (inactive); with RPMI-8226 it was 2.3 µM (inactive); in the assay on SF-539, 4.79 µM (inactive). The GI50 in the assay on SK-MEL-2 is 3.44 µM (inactive); with SK-MEL-5, 2.24 µM (inactive); with SN12C, 2.56 µM (inactive); in the assay on U-251, 6.15 µM (inactive); in the assay with UACC-257 it was 11.1 µM (inactive); in the assay on UACC-62, 4.27 µM (inactive). The GI50 with UO-31 was 4.21 µM (inactive).
As for `CCSC1=C(C#N)C2(CCCCC2)C2=C(O)CC(C)(C)CC2=N1`, the GI50 in the assay with BT-549 was 14.2 µM (inactive); in the assay on EKVX, 24.3 µM (inactive); with HCC 2998, 1.01 µM (active); with HCT-15 it was 64.7 µM; with HL-60, > 100 µM (inactive); in the assay with K562, > 100 µM (inactive). Also, the GI50 is 42.1 µM (inactive) in the assay on MDA-MB-435; > 100 µM (inactive) in the assay with MOLT-4; 39.4 µM (inactive) in the assay on NCI-H522; 39.4 µM (inactive) in the assay with NCI/ADR-RES; 18.8 µM (inactive) in the assay on OVCAR-4; 70.3 µM (inactive) with RPMI-8226. Moreover, the GI50 with SF-539 is 51.8 µM (inactive); in the assay on SK-MEL-2, 54.8 µM (inactive); in the assay with SK-MEL-5, 40.9 µM (inactive); with SN12C, 60.7 µM (inactive); in the assay on U-251, 29.9 µM (inactive); in the assay with UACC-257, 5.96 µM (inactive). Moreover, the GI50 was 25.6 µM (inactive) in the assay on UACC-62 and 16.6 µM (inactive) in the assay with UO-31.
Turning to `O=C1/C(=C/c2ccccc2)CN(C(=O)CCN2CCOCC2)C/C1=C\c1ccccc1`, the GI50 with BT-549 is 2.14 µM (inactive); in the assay with EKVX, 13.6 µM (inactive); with HCC 2998, 1.87 µM (inactive); in the assay with HCT-15, 2.14 µM; in the assay on HL-60, 1.32 µM (inactive); in the assay with K562, 0.388 µM (active). Moreover, the GI50 with MDA-MB-435 is 1.9 µM (inactive); with MOLT-4, 2.58 µM (inactive); in the assay with NCI-H522 it was 2.01 µM (inactive); with NCI/ADR-RES, 3.16 µM (inactive); in the assay with OVCAR-4, 2.94 µM (inactive); in the assay on RPMI-8226, 0.519 µM (active). Also, the GI50 was 2.06 µM (inactive) in the assay on SF-539; 2.55 µM (inactive) in the assay with SK-MEL-2; 2.17 µM (inactive) in the assay with SK-MEL-5; 2.18 µM (inactive) in the assay with SN12C; 1.79 µM (inactive) in the assay with U-251; 2.13 µM (inactive) in the assay with UACC-257. In addition, the GI50 in the assay with UACC-62 was 1.88 µM (inactive); in the assay on UO-31, 8.97 µM (inactive).
Take `N=C(N)N/N=C/c1c(-c2ccc([N+](=O)[O-])cc2)nc2sccn12`: the GI50 was 1.82 µM (inactive) in the assay with BT-549; 1.8 µM (inactive) with EKVX; 1.43 µM (inactive) in the assay with HCC 2998; 10.2 µM with HCT-15; 2.38 µM (inactive) in the assay on HL-60; 0.973 µM (active) in the assay on K562. For the same molecule, the GI50 was 1.5 µM (inactive) in the assay with MDA-MB-435; 1.53 µM (inactive) in the assay with MOLT-4; 2 µM (inactive) with NCI-H522; > 100 µM (inactive) with NCI/ADR-RES; 1.46 µM (inactive) in the assay on OVCAR-4; 5.27 µM (inactive) in the assay with RPMI-8226. Further, the GI50 in the assay with SF-539 was 1.77 µM (inactive); in the assay with SK-MEL-2, 1.76 µM (inactive); in the assay with SK-MEL-5, 3.23 µM (inactive); in the assay with SN12C, 1.77 µM (inactive); in the assay on U-251, 1.58 µM (inactive); in the assay on UACC-257, 1.93 µM (inactive). Besides, the GI50 with UACC-62 was 1.87 µM (inactive); with UO-31, 2.34 µM (inactive).
Take `CCCCCCCC1c2cc3nc(cc4[nH]c(cc5nc(cc([nH]2)[C@@]1(C)CC(=O)N(C)C)C(C)=C5CCC(=O)O)c(CCC(=O)O)c4C)C=C3C` (stereo partly specified): the GI50 was 14.9 µM (inactive) in the assay on BT-549; 55.8 µM (inactive) in the assay on EKVX; 20 µM (inactive) in the assay on HCC 2998; 20.3 µM in the assay with HCT-15; 23.7 µM (inactive) in the assay with HL-60; 21.8 µM (inactive) in the assay on K562. Moreover, the GI50 is 30.2 µM (inactive) with MDA-MB-435; 18.4 µM (inactive) in the assay on NCI-H522; 20.4 µM (inactive) in the assay with NCI/ADR-RES; 32.8 µM (inactive) in the assay on OVCAR-4; 17.7 µM (inactive) with RPMI-8226; 18.9 µM (inactive) with SF-539. Also, the GI50 was 18.8 µM (inactive) in the assay on SK-MEL-2; 29.7 µM (inactive) in the assay with SK-MEL-5; 30.4 µM (inactive) in the assay with SN12C; 18.9 µM (inactive) in the assay on U-251; 17.3 µM (inactive) in the assay on UACC-257; 18.5 µM (inactive) with UACC-62. Moreover, the GI50 in the assay with UO-31 was 18.2 µM (inactive).
On to `Cc1cccc2c1c(=O)c1c(O)cc3c(c1n2C)C=CC(C)(C)O3`, for which the GI50 in the assay with BT-549 is > 100 µM (inactive); in the assay with EKVX, 33.9 µM (inactive); in the assay with HCC 2998 it was > 100 µM (inactive); in the assay with HCT-15, above 100 µM; with HL-60, > 100 µM (inactive); in the assay with K562, 18.1 µM (inactive). Moreover, the GI50 in the assay on MDA-MB-435, with MOLT-4, with NCI-H522, in the assay on NCI/ADR-RES, with OVCAR-4 and in the assay on RPMI-8226 was > 100 µM (inactive) in each case. Also, the GI50 is > 100 µM (inactive) in the assay with SF-539; > 100 µM (inactive) with SK-MEL-2; 75 µM (inactive) in the assay with SK-MEL-5; > 100 µM (inactive) in the assay on SN12C; > 100 µM (inactive) in the assay with U-251; > 100 µM (inactive) in the assay with UACC-257. Also, the GI50 in the assay with UACC-62 is > 100 µM (inactive).
Turning to `CC[C@H](CCCC[C@H]1CC[C@@H]2CC(=O)C[C@H]12)OC`, the GI50 is 36.9 µM (inactive) in the assay on BT-549; 60.1 µM (inactive) in the assay on EKVX; > 100 µM (inactive) with HCC 2998; 24 µM (inactive) in the assay on HL-60; 13 µM (inactive) with K562; > 100 µM (inactive) in the assay with MDA-MB-435. Moreover, the GI50 was 53.6 µM (inactive) with MOLT-4; 65.8 µM (inactive) in the assay on NCI-H522; 47.4 µM (inactive) in the assay on NCI/ADR-RES; > 100 µM (inactive) in the assay on OVCAR-4; 34 µM (inactive) in the assay with RPMI-8226; > 100 µM (inactive) in the assay on SF-539. Besides, the GI50 was > 100 µM (inactive) in the assay with SK-MEL-2; 31.4 µM (inactive) with SK-MEL-5; 95.5 µM (inactive) with U-251; 43.5 µM (inactive) in the assay with UACC-257; 60 µM (inactive) with UACC-62.
On to `O=C1NC2(CCCCC2)N=C2C(Cl)CCCC12Cl` (stereo unspecified), for which the GI50 in the assay on BT-549 is > 100 µM (inactive); in the assay with EKVX it was > 100 µM (inactive); in the assay on HCC 2998, > 100 µM (inactive); in the assay on HCT-15, above 100 µM; with HL-60, > 100 µM (inactive); with K562, > 100 µM (inactive). The GI50 in the assay with MDA-MB-435, in the assay with MOLT-4, in the assay on NCI-H522, in the assay with NCI/ADR-RES, in the assay with OVCAR-4 and in the assay on RPMI-8226 was > 100 µM (inactive) in each case. Further, the GI50 with SF-539, in the assay with SK-MEL-2, in the assay with SK-MEL-5, in the assay on SN12C, in the assay with U-251 and in the assay with UACC-62 was > 100 µM (inactive) throughout. The GI50 with UO-31 was > 100 µM (inactive).
`O=c1c2cc(Br)ccc2oc2ccc(Br)cc12`: the GI50 with BT-549 is > 100 µM (inactive); in the assay with HCC 2998, > 100 µM (inactive); with HCT-15, above 100 µM; in the assay with HL-60, > 100 µM (inactive); in the assay on K562 it was > 100 µM (inactive); in the assay on MDA-MB-435 it was > 100 µM (inactive). The GI50 with MOLT-4 is > 100 µM (inactive); with NCI-H522 it was > 100 µM (inactive); with NCI/ADR-RES it was > 100 µM (inactive); with OVCAR-4, 46.3 µM (inactive); in the assay on RPMI-8226, > 100 µM (inactive); with SF-539, > 100 µM (inactive). Moreover, the GI50 in the assay with SK-MEL-2 was > 100 µM (inactive); in the assay with SK-MEL-5, > 100 µM (inactive); in the assay on SN12C it was > 100 µM (inactive); in the assay on U-251 it was 64.6 µM (inactive); in the assay with UACC-257 it was > 100 µM (inactive); in the assay with UACC-62 it was > 100 µM (inactive). Besides, in the assay on UO-31, the GI50 is > 100 µM (inactive).
On to `Clc1ccc(COC(Cn2ccnc2)c2ccc(Cl)cc2Cl)cc1` (stereo unspecified) [ECONAZOLE], for which the GI50 in the assay on BT-549 was 18.9 µM (inactive); in the assay with EKVX it was 11.8 µM (inactive); in the assay on HCC 2998, 14.6 µM (inactive); in the assay with HCT-15, 12.7 µM; with HL-60, 6.87 µM (inactive); in the assay on K562, 4.76 µM (inactive). Also, the GI50 with MDA-MB-435 is 11.8 µM (inactive); in the assay with MOLT-4, 2.99 µM (inactive); in the assay with NCI-H522 it was 4.57 µM (inactive); in the assay on NCI/ADR-RES, 4.44 µM (inactive); in the assay with OVCAR-4 it was 11.8 µM (inactive); in the assay on RPMI-8226, 8.26 µM (inactive). Moreover, the GI50 in the assay on SF-539 is 18.8 µM (inactive); with SK-MEL-2 it was 14.8 µM (inactive); with SN12C, 12.5 µM (inactive); in the assay with U-251, 13.2 µM (inactive); with UACC-257, 13.1 µM (inactive); in the assay on UACC-62, 12.1 µM (inactive). Also, the GI50 in the assay with UO-31 was 4.13 µM (inactive).

These data come from ChEMBL document CHEMBL1201862, “PubChem BioAssay data set” (2004).
